Tests used:
Candida albicans (138) = assay: L-serine-aminopeptidase activity on gelled medium, Example 7; assay type: cell-based; settings: 0.3 g/l, 18 to 24 hours
Method: (§1) A gelled medium comprising L-seryl-9-(4-amino-phenyl)acridine (hereinafter referred to as L-Ser-4-APA) is prepared as follows: 30 milligrams of L-Ser-4-APA are added to 4 grams of Columbia agar, that are added to 0.1 liter of distilled water and then autoclaved. This reaction medium is autoclaved at 116° C. for 20 minutes.
(§2) Microorganisms derived from the applicant's collection were seeded onto this medium using a suspension of 0.5 McFarland. The dishes were incubated at 37° C. for 24 hours. Samples of 10 μl of each suspension were cultured so as to produce colonies. The colonies formed were examined visually after incubation for 18 to 24 hours.
(§3) The color of these colonies was noted before and after the addition of a drop of acetic acid, hereinafter referred to as GAA (glacial acetic acid).

[1] = system: Enterococcus faecalis (117); assay: as above; assay type: cell-based; settings: 0.3 g/l, 18 to 24 hours
Method: as §1, §2, §3

Escherichia coli (009) = assay: as above; assay type: cell-based; settings: 0.3 g/l, 18 to 24 hours
Method: as §1, §2, §3

[2] = system: Klebsiella pneumoniae (012); assay: as above; assay type: cell-based; settings: 0.3 g/l, 18 to 24 hours
Method: as §1, §2, §3

[3] = system: Staphylococcus aureus (008); assay: as above; assay type: cell-based; settings: 0.3 g/l, 18 to 24 hours
Method: as §1, §2, §3

[4] = system: Yersinia enterocolitica (061); assay: as above; assay type: cell-based; settings: 0.3 g/l, 18 to 24 hours
Method: as §1, §2, §3

[5] = substrate dissolution in autoclaved Columbia agar medium; assay type: physicochemical; settings: 30 milligrams with 4 grams of Columbia agar in 0.1 liter of distilled water, autoclaved at 116° C. for 20 minutes
Method: as §1

In the case of `N[C@@H](CO)C(=O)Nc1ccc(-c2c3ccccc3nc3ccccc23)cc1` [L-Ser-4-APA, L-Seryl-9-(4-aminophenyl)acridine], the Color (Candida albicans (138); after GAA) is reported as “cream”, the Color (Candida albicans (138); before GAA) is reported as “cream” and the Color ([1]; after GAA) is reported as “cream”. For the same compound, the Color ([1]; before GAA) was “cream”, the Color (Escherichia coli (009); after GAA) was “pale orange” and the Intensity (Escherichia coli (009); after GAA) was 2. The Color (Escherichia coli (009); before GAA) was “cream”, the Color ([2]; after GAA) was “pale orange” and the Intensity ([2]; after GAA) was 2. For the same compound, the Color ([2]; before GAA) was “cream”, the Color ([3]; after GAA) was “cream” and the Color ([3]; before GAA) was “cream”. The Color ([4]; after GAA) was “pale orange”, the Intensity ([4]; after GAA) was 2 and the Color ([4]; before GAA) was “cream”. The “substrate in solution in the medium” value [5] was “Most of the substrate is in solution”.

Reference: patent publication US7223865B2, “Chromogenic compounds, and use thereof as enzyme substrates” (Biomerieux, priority 2003, dated 2007)
